Reference: US9023789B2, “Amylin analogs and pharmaceutical compositions thereof” (Novo Nordisk A/S, priority 2012, dated 2015)
Numbered stars: 1 amine (or outer) side, 2 acyl side, 3 side chain; on linkers, the order of the positions; unused ones are H or OH. Bridge positions count the residues as written; N and C are the ends. Side chains are listed from the residue outwards. Peptide text beside a SMILES is read from it. * marks the point of attachment. C20 diacid = O=C(O)CCCCCCCCCCCCCCCCCCC(=O)*; γGlu = O=C(O)[C@H](CCC(=O)[*:2])N[*:1]; AEEA = NCCOCCOCC(=O)O

What was measured:
[1] = molecular target: T1, rat amylin receptor (rat calcitonin receptor + rat RAMP 3) (Rattus norvegicus, UniProt P32214+Q9JJ73); assay: ASSAY (VI) binding to the rat amylin receptor; conditions: for IC50: binding to rat amylin receptor, read-out: rAmylin-R bind IC50
T1 construct: expressed in transfected cells; host or cells: BHK tk'ts 13 (transient, FuGENE 6), membranes
T1 sequence (P32214 25-479 isoform P32214-2 limits assumed): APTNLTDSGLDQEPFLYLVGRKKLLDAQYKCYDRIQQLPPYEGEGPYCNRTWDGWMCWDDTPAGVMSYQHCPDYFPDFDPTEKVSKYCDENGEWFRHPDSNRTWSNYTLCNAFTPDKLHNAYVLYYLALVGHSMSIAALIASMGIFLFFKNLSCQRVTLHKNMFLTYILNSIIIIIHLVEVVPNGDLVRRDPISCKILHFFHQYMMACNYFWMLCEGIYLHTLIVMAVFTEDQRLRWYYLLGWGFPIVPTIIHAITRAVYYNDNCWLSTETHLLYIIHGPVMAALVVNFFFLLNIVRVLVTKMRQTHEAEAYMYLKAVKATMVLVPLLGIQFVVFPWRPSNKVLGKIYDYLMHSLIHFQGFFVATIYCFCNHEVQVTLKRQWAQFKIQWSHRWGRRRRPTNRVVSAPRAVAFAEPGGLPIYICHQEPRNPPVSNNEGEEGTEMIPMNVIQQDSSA
T1 sequence (Q9JJ73 23-147 partner): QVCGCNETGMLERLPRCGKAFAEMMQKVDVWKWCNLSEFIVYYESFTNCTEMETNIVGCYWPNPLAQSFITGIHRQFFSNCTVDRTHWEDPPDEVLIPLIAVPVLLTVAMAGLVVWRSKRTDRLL
Procedure, shortened: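 Binding to the rat amylin receptor was determined with membrane preparations. The receptor was expressed by transiently transfecting BHK tk′ts 13 cells with rat calcitonin receptor, using FuGENE® 6 (Roche) according to the manufacturer's recommendations. Roughly 48 hours later the cells were harvested and their membranes isolated.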

[2] = molecular target: T2, human amylin 3(a) receptor (human calcitonin receptor + RAMP-3) in BHK570 cells (Homo sapiens, UniProt O60896+P30988); assay: ASSAY (II)a functional assay, human amylin receptor (CRE luciferase); type: cell-based
T2 construct: expressed in transfected cells
Procedure, shortened: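 Cells were seeded and cultured overnight, then incubated with standard or sample for 3 h at 37° C in serum-containing medium at pH 7.4. The medium was then swapped for PBS, LucLite was added for 30 min at room temperature, and luminescence was recorded. Cells were BHK with CRE-luc and calcitonin receptor, ± RAMP-3.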

[3] = molecular target: T3, human amylin receptor (membranes from Amylin 3(a)/CRE-luc cells) (Homo sapiens, UniProt O60896+P30988); assay: ASSAY (V) binding to the human amylin receptor (SPA, 125I-rat amylin);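 note: competition binding of cell membranes (35 ng/µL) mixed with SPA beads in 384-well plates at 40 µL total volume, read by scintillation counting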
T3 construct: expressed in transfected cells
T3 sequence (P30988 25-474): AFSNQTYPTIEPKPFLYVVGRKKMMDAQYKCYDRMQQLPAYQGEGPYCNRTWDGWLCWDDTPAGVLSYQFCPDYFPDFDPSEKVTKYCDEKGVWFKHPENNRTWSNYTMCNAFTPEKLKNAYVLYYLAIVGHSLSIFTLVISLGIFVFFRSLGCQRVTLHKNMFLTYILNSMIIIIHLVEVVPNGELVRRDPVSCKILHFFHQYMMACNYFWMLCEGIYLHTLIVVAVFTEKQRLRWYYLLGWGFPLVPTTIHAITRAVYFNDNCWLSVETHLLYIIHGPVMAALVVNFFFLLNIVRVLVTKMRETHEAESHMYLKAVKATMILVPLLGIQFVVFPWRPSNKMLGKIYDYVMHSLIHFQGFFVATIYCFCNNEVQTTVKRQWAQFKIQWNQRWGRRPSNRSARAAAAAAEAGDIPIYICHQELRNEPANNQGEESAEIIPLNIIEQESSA
T3 sequence (O60896 24-148 partner): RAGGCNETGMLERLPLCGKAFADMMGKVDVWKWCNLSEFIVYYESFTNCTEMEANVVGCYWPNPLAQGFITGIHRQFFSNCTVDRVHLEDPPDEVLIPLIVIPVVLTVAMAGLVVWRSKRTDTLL

[4] = Table 7, rat binding selectivity, rCTR IC50 / rAmylin-R IC50
[5] = Table 7a (preferred compounds), rat binding selectivity, rCTR IC50 / rAmylin-R IC50
[6] = ratio of rCTR bind IC50 to rAmylin-R bind IC50
[7] = hCTR funct. EC50 over hAmylin-R funct. EC50
[8] = human functional selectivity: hCTR funct. EC50 / hAmylin-R funct. EC50
[9] = Table 5, selectivity, hCTR bind IC50 / hAmylin-R bind IC50
[10] = Table 5a, selectivity, hCTR bind IC50 / hAmylin-R bind IC50
[11] = Table 5b, selectivity, hCTR bind IC50 / hAmylin-R bind IC50
[12] = Table 5c, selectivity, hCTR bind IC50 / hAmylin-R bind IC50
[13] = Table 7, human binding selectivity, included for comparison
[14] = Table 7a (preferred compounds), human binding selectivity, included for comparison
[15] = ratio of human calcitonin receptor binding IC50 to human amylin receptor binding IC50
[16] = hCTR funct. EC50 divided by hAmylin-R funct. EC50

| IC50 ([1]; Table 7) | Ratio rCT/rAmylin binding [1, 4] | Ratio rCT/rAmylin binding [1, 5] | Ratio rCT/rAmylin binding [1, 6] | Ratio hCT/hAmylin funct. [2, 7] | Ratio hCT/hAmylin funct. [2, 8] | Ratio hCT/hAmylin binding [3, 9] | Ratio hCT/hAmylin binding [3, 10] | Ratio hCT/hAmylin binding [3, 11] | Ratio hCT/hAmylin binding [3, 12] | Ratio hCT/hAmylin binding [3, 13] | Ratio hCT/hAmylin binding [3, 14] | Ratio hCT/hAmylin binding [3, 15] | Ratio hCT/hAmylin funct. [2, 16] | Compound |
| --- | --- | --- | --- | --- | --- | --- | --- | --- | --- | --- | --- | --- | --- | --- |
| 0.449 nM | 74.7 | 74.7 | 74.7 | 5.8 | 5.8 | 22.6 | 22.6 | 22.6 | 22.6 | 22.6 | 22.6 | 22.6 | – | CC[C@H](C)[C@H](NC(=O)[C@H](C)NC(=O)CNC(=O)[C@H](Cc1ccccc1)NC(=O)[C@H](CC(N)=O)NC(=O)[C@@H]1CCCN1C(=O)[C@H](CO)NC(=O)[C@H](CO)NC(=O)[C@H](Cc1c[nH]cn1)NC(=O)[C@H](CCCNC(=N)N)NC(=O)[C@H](CC(C)C)NC(=O)[C@H](Cc1ccccc1)NC(=O)[C@H](CCC(=O)O)NC(=O)[C@H](C)NC(=O)[C@H](CC(C)C)NC(=O)[C@H](CCCNC(=N)N)NC(=O)[C@H](CCC(N)=O)NC(=O)[C@@H](NC(=O)[C@H](C)NC(=O)[C@@H]1CSSC[C@H](NC(=O)[C@@H](N)CCCCNC(=O)CC[C@H](NC(=O)CC[C@H](NC(=O)CCCCCCCCCCCCCCCCCCC(=O)O)C(=O)O)C(=O)O)C(=O)N[C@@H](CC(N)=O)C(=O)N[C@@H]([C@@H](C)O)C(=O)N[C@@H](C)C(=O)N[C@@H]([C@@H](C)O)C(=O)N1)[C@@H](C)O)C(=O)N[C@@H](CC(C)C)C(=O)N[C@@H](CO)C(=O)N[C@@H](CO)C(=O)N[C@H](C(=O)N1CCC[C@H]1C(=O)N[C@H](C(=O)NCC(=O)N1CCC[C@H]1C(=O)N[C@@H](CCC(=O)O)C(=O)N[C@H](C(=O)N[C@@H](Cc1ccc(O)cc1)C(N)=O)[C@@H](C)O)C(C)C)[C@@H](C)O [Example 121] (H-K([γGlu-γGlu-C20 diacid])CNTATCATQRLAEFLRHSSPNFGAILSSTPVGPETY-NH2; disulfide 2-7; N-terminus assumed) |
| 0.386 nM | 76.3 | 76.3 | 76.3 | 36.9 | 36.9 | 100.8 | 100.8 | 100.8 | 100.8 | 100.8 | 100.8 | 100.8 | 36.9 | CC[C@H](C)[C@H](NC(=O)[C@H](C)NC(=O)CNC(=O)[C@H](Cc1ccccc1)NC(=O)[C@H](CC(N)=O)NC(=O)[C@@H]1CCCN1C(=O)[C@H](CO)NC(=O)[C@H](CO)NC(=O)[C@H](Cc1c[nH]cn1)NC(=O)[C@H](CCCNC(=N)N)NC(=O)[C@H](CC(C)C)NC(=O)[C@H](Cc1ccccc1)NC(=O)[C@H](CC(N)=O)NC(=O)[C@H](C)NC(=O)[C@H](CC(C)C)NC(=O)[C@H](CCCNC(=N)N)NC(=O)[C@H](CCC(N)=O)NC(=O)[C@@H](NC(=O)[C@H](C)NC(=O)[C@@H]1CSSC[C@H](NC(=O)[C@@H](N)CCCCNC(=O)COCCOCCNC(=O)CCCCCCCCCCCCCCCCCCC(=O)O)C(=O)N[C@@H](CC(N)=O)C(=O)N[C@@H]([C@@H](C)O)C(=O)N[C@@H](C)C(=O)N[C@@H]([C@@H](C)O)C(=O)N1)[C@@H](C)O)C(=O)N1CCC[C@H]1C(=O)N[C@@H](CO)C(=O)N[C@@H](CO)C(=O)N[C@H](C(=O)N[C@@H](CC(N)=O)C(=O)N[C@H](C(=O)NCC(=O)N[C@@H](Cc1c[nH]cn1)C(=O)N[C@@H](CC(N)=O)C(=O)N[C@H](C(=O)N[C@@H](Cc1ccc(O)cc1)C(N)=O)[C@@H](C)O)C(C)C)[C@@H](C)O [Example 91] |
| 2.83 nM | 49.7 | 49.7 | 49.7 | 41.6 | 41.6 | 145.6 | 145.6 | 145.6 | 145.6 | 145.6 | 145.6 | 145.6 | 41.6 | CC[C@H](C)[C@H](NC(=O)[C@H](C)NC(=O)CNC(=O)[C@H](Cc1ccccc1)NC(=O)[C@H](CC(N)=O)NC(=O)[C@@H]1CCCN1C(=O)[C@H](CO)NC(=O)[C@H](CO)NC(=O)[C@H](Cc1c[nH]cn1)NC(=O)[C@H](CCCNC(=N)N)NC(=O)[C@H](CC(C)C)NC(=O)[C@H](Cc1ccccc1)NC(=O)[C@H](CCCNC(=N)N)NC(=O)[C@H](C)NC(=O)[C@H](CC(C)C)NC(=O)[C@H](CCCNC(=N)N)NC(=O)[C@H](CCC(N)=O)NC(=O)[C@@H](NC(=O)[C@H](C)NC(=O)[C@@H]1CSSC[C@H](NC(=O)[C@@H](N)CCCCNC(=O)CC[C@H](NC(=O)CCCCCCCCCCCCCCCCCCC(=O)O)C(=O)O)C(=O)N[C@@H](CC(N)=O)C(=O)N[C@@H]([C@@H](C)O)C(=O)N[C@@H](C)C(=O)N[C@@H]([C@@H](C)O)C(=O)N1)[C@@H](C)O)C(=O)N1CCC[C@H]1C(=O)N[C@@H](CO)C(=O)N[C@@H](CO)C(=O)N[C@H](C(=O)N[C@@H](CC(N)=O)C(=O)N[C@H](C(=O)NCC(=O)N[C@@H](CO)C(=O)N[C@@H](CC(N)=O)C(=O)N[C@H](C(=O)N[C@@H](Cc1ccc(O)cc1)C(N)=O)[C@@H](C)O)C(C)C)[C@@H](C)O [Example 83] |
| 0.04 nM | 131.4 | 131.4 | 131.4 | – | 5.0 | 42.6 | 42.6 | 42.6 | 42.6 | 42.6 | 42.6 | 42.6 | 5.0 | CC[C@H](C)[C@H](NC(=O)[C@H](C)NC(=O)CNC(=O)[C@H](Cc1ccccc1)NC(=O)[C@H](CC(N)=O)NC(=O)[C@@H]1CCCN1C(=O)[C@H](CO)NC(=O)[C@H](CO)NC(=O)[C@H](Cc1c[nH]cn1)NC(=O)[C@H](CCCNC(=N)N)NC(=O)[C@H](CC(C)C)NC(=O)[C@H](Cc1ccccc1)NC(=O)[C@H](CC(N)=O)NC(=O)[C@H](C)NC(=O)[C@H](CC(C)C)NC(=O)[C@H](CCCNC(=N)N)NC(=O)[C@H](CCC(N)=O)NC(=O)[C@@H](NC(=O)[C@H](C)NC(=O)[C@@H]1CSSC[C@H](NC(=O)[C@@H](N)CCCCNC(=O)COCCOCCNC(=O)CC[C@H](NC(=O)CCCCCCCCCCCCCCCCCCC(=O)O)C(=O)O)C(=O)N[C@@H](CC(N)=O)C(=O)N[C@@H]([C@@H](C)O)C(=O)N[C@@H](C)C(=O)N[C@@H]([C@@H](C)O)C(=O)N1)[C@@H](C)O)C(=O)N1CCC[C@H]1C(=O)N[C@@H](CO)C(=O)N1CCC[C@H]1C(=O)N[C@H](C(=O)N[C@@H](CC(N)=O)C(=O)N[C@H](C(=O)NCC(=O)N1CCC[C@H]1C(=O)N[C@@H](CC(N)=O)C(=O)N[C@H](C(=O)N[C@@H](Cc1ccc(O)cc1)C(N)=O)[C@@H](C)O)C(C)C)[C@@H](C)O [Example 56] (H-K([AEEA-γGlu-C20 diacid])CNTATCATQRLANFLRHSSPNFGAIPSPTNVGPNTY-NH2; disulfide 2-7 (inferred); N-terminus assumed) |
